Test results from PubChem BioAssay AID274 (DTP/NCI, 2004).
Values joined by “and” are separate entries in the source; they are usually repeats but may differ in a detail not shown here. Equal entries are not always repeated. Inconclusive results and toxic doses are left out. How the source made its calls: active means survival T/C of 150% or more; inactive means T/C below 125% in these data.

Test system: BDF1 mice, Lewis lung carcinoma iv, survival T/C
Test: NCI In Vivo Anticancer Drug Screen. Data for tumor model Lewis Lung Carcinoma (intravenous) in B6D2F1 (BDF1) mice
Settings: endpoint: median survival time, higher = longer survival
Experimental: The antitumor activity of compounds was measured in mice bearing transplantable tumors. Survival or tumor size were measured and the results are expressed as the measurement made in the treated group (T) divided by the measurement made in the vehicle treated control group (C). The tumor model used in this assay is Lewis Lung Carcinoma (intravenous) in B6D2F1 (BDF1) mice

[1] = dose: 25.0 mg/kg/injection, schedule: Q01DX009 (ip), vehicle: saline
[2] = dose: 50.0 mg/kg/injection, schedule: Q01DX009 (ip), vehicle: saline
[3] = dose: 100.0 mg/kg/injection, schedule: Q01DX009 (ip), vehicle: saline
[4] = dose: 200.0 mg/kg/injection, schedule: Q01DX009 (ip), vehicle: saline
[5] = dose: 100.0 mg/kg/injection, schedule: Q01DX009 (ip), vehicle: saline with Tween-80
[6] = dose: 200.0 mg/kg/injection, schedule: Q01DX009 (ip), vehicle: saline with Tween-80
[7] = dose: 400.0 mg/kg/injection, schedule: Q01DX009 (ip), vehicle: saline with Tween-80
[8] = dose: 12.5 mg/kg/injection, schedule: Q01DX009 (ip), vehicle: saline
[9] = dose: 6.25 mg/kg/injection, schedule: Q01DX009 (ip), vehicle: saline with Tween-80
[10] = dose: 12.5 mg/kg/injection, schedule: Q01DX009 (ip), vehicle: saline with Tween-80
[11] = dose: 25.0 mg/kg/injection, schedule: Q01DX009 (ip), vehicle: saline with Tween-80
[12] = dose: 50.0 mg/kg/injection, schedule: Q01DX009 (ip), vehicle: saline with Tween-80

Measured: T/C

CCN(CC)CCOCCO
inactive: [1] 110 % of control | [2] 99 % of control | [3] 101 % of control | [4] 99 % of control

O=C1OC(c2ccc(O)cc2)(c2ccc(Oc3ccccc3)cc2)c2ccccc21 (stereo not given)
inactive: [5] 105 % of control | [6] 112 % of control | [7] 99 % of control

CCN1/C(=C/C=C/C=C\C=C\c2sc3ccc4ccccc4c3[n+]2CC)Sc2ccc3ccccc3c21
inactive: dose: 0.08 mg/kg/injection, schedule: Q01DX009 (ip), vehicle: saline with Tween-80 101 % of control | dose: 0.16 mg/kg/injection, schedule: Q01DX009 (ip), vehicle: saline with Tween-80 104 % of control | dose: 0.31 mg/kg/injection, schedule: Q01DX009 (ip), vehicle: saline with Tween-80 98 % of control | dose: 0.62 mg/kg/injection, schedule: Q01DX009 (ip), vehicle: saline with Tween-80 104 % of control | dose: 1.25 mg/kg/injection, schedule: Q01DX009 (ip), vehicle: saline with Tween-80 105 % of control | dose: 2.5 mg/kg/injection, schedule: Q01DX009 (ip), vehicle: saline with Tween-80 105 % of control

O=C1CN(CN2CCOCC2)C(=O)CN1CN1CCOCC1
inactive: [8] 118 % of control | [1] 113 % of control | [2] 95 % of control | [3] 93 % of control | [4] 104 % of control

CO[C@@]12[C@H](COC(N)=O)C3=C(C(=O)C(C)=C(N)C3=O)N1C[C@@H]1N[C@@H]12
inactive: dose: 0.12 mg/kg/injection, schedule: Q01DX009 (ip), vehicle: saline 101 % of control | dose: 0.25 mg/kg/injection, schedule: Q01DX009 (ip), vehicle: saline 105 % of control | dose: 0.5 mg/kg/injection, schedule: Q01DX009 (ip), vehicle: saline 98 % of control | dose: 1.0 mg/kg/injection, schedule: Q01DX009 (ip), vehicle: saline 101 % of control

OCCOCC(F)(F)F
inactive: [9] 98 % of control | [10] 86 % of control | [11] 106 % of control | [1] 89 % of control | [12] 90 % of control | [5] 102 % of control | [6] 103 % of control

COc1cc(Cl)ccc1C
inactive: [10] 111 % of control | [11] 107 % of control | [12] 97 % of control | [5] 108 % of control | [6] 102 % of control | [7] 98 % of control

C[Si](C)(C)O/C=C1/CCOC1=O
inactive: [8] 116 % of control | [1] 101 % of control | [2] 107 % of control | [3] 108 % of control | [4] 93 % of control | dose: 400.0 mg/kg/injection, schedule: Q01DX009 (ip), vehicle: saline 99 % of control

Cc1cc(N(CC(C)Br)CC(C)Br)ccc1N=Nc1ccccc1C(=O)O (stereo not given)
inactive: [9] 117 % of control | [10] 114 % of control

CNc1cccnc1/C=N/NC(N)=S
inactive: dose: 12.0 mg/kg/injection, schedule: Q01DX009 (ip), vehicle: saline with Tween-80 100 % of control | [11] 103 % of control | [12] 102 % of control | [5] 115 % of control

Cc1c[nH]c(=O)[nH]c1=O
inactive: dose: 32.0 mg/kg/injection, schedule: Q01DX009 (ip), vehicle: Klucel (hydroxypropylcellulose) (HPC) 104 % of control | dose: 64.0 mg/kg/injection, schedule: Q01DX009 (ip), vehicle: Klucel (hydroxypropylcellulose) (HPC) 114 % of control | dose: 128.0 mg/kg/injection, schedule: Q01DX009 (ip), vehicle: Klucel (hydroxypropylcellulose) (HPC) 93 % of control | dose: 256.0 mg/kg/injection, schedule: Q01DX009 (ip), vehicle: Klucel (hydroxypropylcellulose) (HPC) 101 % of control | dose: 512.0 mg/kg/injection, schedule: Q01DX009 (ip), vehicle: Klucel (hydroxypropylcellulose) (HPC) 92 % of control

CC(CNC(=O)CCOS(C)(=O)=O)NC(=O)CCOS(C)(=O)=O (stereo not given)
inactive: [3] 106 % of control

[Cl][Hg][Cl]
inactive: dose: 0.2 mg/kg/injection, schedule: Q01DX009 (ip), vehicle: saline 95 % of control | dose: 0.4 mg/kg/injection, schedule: Q01DX009 (ip), vehicle: saline 99 % of control | dose: 0.78 mg/kg/injection, schedule: Q01DX009 (ip), vehicle: saline 93 % of control | dose: 1.56 mg/kg/injection, schedule: Q01DX009 (ip), vehicle: saline 93 % of control

CC1(C)COCN1COC1CCCCC1
inactive: [8] 112 % of control and 118 % of control | [1] 98 % of control and 111 % of control | [2] 97 % of control and 115 % of control | [3] 95 % of control and 99 % of control

CC(C)C(N)C(=O)Nc1nncs1 (stereo not given)
inactive: [8] 104 % of control | [1] 106 % of control | [2] 106 % of control | [3] 115 % of control | [4] 95 % of control

[N-]=[N+]=CC(=O)CCC(N)C(=O)O (stereo not given)
inactive: dose: 0.01 mg/kg/injection, schedule: Q01DX009 (ip), vehicle: saline 95 % of control | dose: 0.02 mg/kg/injection, schedule: Q01DX009 (ip), vehicle: saline 98 % of control | dose: 0.05 mg/kg/injection, schedule: Q01DX009 (ip), vehicle: saline 108 % of control | dose: 0.1 mg/kg/injection, schedule: Q01DX009 (ip), vehicle: saline 109 % of control and 111 % of control

CC(C)C1OC(=O)/C=C/C=C/C=C/C=C/C=C/CC(O)C(C)C(O)CC(O)CC(O)CC(O)CC(O)CC(O)CC(O)/C=C/C1C (stereo not given)
inactive: dose: 6.25 mg/kg/injection, schedule: Q01DX009 (ip), vehicle: saline 111 % of control | [8] 104 % of control | [1] 111 % of control

O=C(N/N=C\c1cc(Br)cc(Br)c1O)N/N=C/c1cc(Br)cc(Br)c1O
inactive: [10] 91 % of control | [11] 96 % of control | [12] 98 % of control | [5] 96 % of control | [6] 98 % of control | [7] 96 % of control

NC(Cc1cc([N+](=O)[O-])ccc1CN(CCCl)CCCl)C(=O)O (stereo not given)
inactive: dose: 3.24 mg/kg/injection, schedule: Q04DX003 (ip), vehicle: Klucel (hydroxypropylcellulose) (HPC) 102 % of control | dose: 5.4 mg/kg/injection, schedule: Q04DX003 (ip), vehicle: Klucel (hydroxypropylcellulose) (HPC) 115 % of control | dose: 15.0 mg/kg/injection, schedule: Q04DX003 (ip), vehicle: Klucel (hydroxypropylcellulose) (HPC) 102 % of control

C/C=C(\C)c1cc(=O)c2c(C)cc3c(c2o1)C(=O)c1c(O)c(C2CC(C)(N(C)C)C(O)C(C)O2)cc(C2CC(N(C)C)C(O)C(C)O2)c1C3=O (stereo not given)
inactive: dose: 31.25 micrograms/kg/injection, schedule: Q01DX009 (ip), vehicle: saline 103 % of control | dose: 62.5 micrograms/kg/injection, schedule: Q01DX009 (ip), vehicle: saline 106 % of control | dose: 125.0 micrograms/kg/injection, schedule: Q01DX009 (ip), vehicle: saline 112 % of control | dose: 250.0 micrograms/kg/injection, schedule: Q01DX009 (ip), vehicle: saline 86 % of control

COC(C(=O)C(O)C(C)O)C1CC2C=C3C=C(OC4CC(OC5CC(O)C(OC)C(C)O5)C(OC(C)=O)C(C)O4)C(C)C(=O)C3=C(O)C2=C(O)C1OC1CC(OC2CC(OC3CC(C)(O)C(O)C(C)O3)C(O)C(C)O2)C(O)C(C)O1 (stereo not given)
inactive: dose: 0.06 mg/kg/injection, schedule: Q01DX009 (ip), vehicle: saline with Tween-80 96 % of control | dose: 0.13 mg/kg/injection, schedule: Q01DX009 (ip), vehicle: saline with Tween-80 101 % of control | dose: 0.25 mg/kg/injection, schedule: Q01DX009 (ip), vehicle: saline with Tween-80 114 % of control | dose: 0.5 mg/kg/injection, schedule: Q01DX009 (ip), vehicle: saline with Tween-80 104 % of control | dose: 1.0 mg/kg/injection, schedule: Q01DX009 (ip), vehicle: saline with Tween-80 101 % of control | dose: 2.0 mg/kg/injection, schedule: Q01DX009 (ip), vehicle: saline with Tween-80 92 % of control

COc1cc2cc(c1Cl)N(C)C(=O)C[C@H](OC(=O)[C@H](C)N(C)C(C)=O)[C@]1(C)O[C@H]1[C@H](C)[C@@H]1C[C@@](O)(NC(=O)O1)[C@H](OC)C=C/C=C(\C)C2
inactive: dose: 54.0 micrograms/kg/injection, schedule: Q04DX003 (ip), vehicle: water 94 % of control | dose: 90.0 micrograms/kg/injection, schedule: Q04DX003 (ip), vehicle: water 94 % of control | dose: 150.0 micrograms/kg/injection, schedule: Q04DX003 (ip), vehicle: water 90 % of control
